Tested on: human primary corneal epithelial cells
Test: mucin secretion assay using human primary corneal epithelial cells
Type: cell-based
Conditions: for Soluble Mucin Units/well: 45-minute incubation at 37° C., conditioned medium; for Total Mucin Units/well: soluble plus membrane-associated (NAC wash) mucin; for Stimulation Index: ratio of Total Mucin Units/well test solution to Control

SMILES: CCCCCCCCCCCCO[C@@H]1O[C@H](CO)[C@@H](O[C@H]2O[C@H](CO)[C@@H](O)[C@H](O)[C@H]2O)[C@H](O)[C@H]1O [Dodecylmaltoside, n-Dodecyl-beta-D-maltoside]
- Soluble Mucin Units/well (0.0001% DDM): 10 ± 0.6 Units/well
- Total Mucin Units/well (0.0001% DDM): 18.7 ± 0.2 Units/well
- Stimulation Index (0.0001% DDM): 1.23
- Soluble Mucin Units/well (0.001% DDM): 24.7 ± 2.7 Units/well
- Total Mucin Units/well (0.001% DDM): 32.3 ± 2.9 Units/well
- Stimulation Index (0.001% DDM): 2.12
- Soluble Mucin Units/well (0.01% DDM): 13.2 ± 0.5 Units/well
- Total Mucin Units/well (0.01% DDM): 30.17 ± 0.6 Units/well
- Stimulation Index (0.01% DDM): 1.98

From patent US7223737B1, “Method of treating dry eye disorders using glycosides” (Alcon, Inc., priority 2004, dated 2007)
